Data as given in patent publication US11078202B2, “β-lactamase inhibitor and use thereof” (priority 2018, dated 2021).
Counter-ions that a name gives are not always drawn.

Key:
Format in all cases: cell-based
[1] = test system: Klebsiella pneumoniae XNWB 0001; test: MIC assay of test compounds combined with ceftazidime (8 μg/mL); settings: ceftazidime 8 μg/mL fixed
Summary of the method: (§1)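 Colonies from 20-24 h TSA plates (35±2 °C) → saline, OD600 0.1-0.15 → 300-fold dilution in 1.1×CAMHB → added to compound plus fixed antibiotic wells, growth and sterility controls included → 16-20 h at 35±2 °C → MIC by CLSI criteria.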

[2] = test system: Klebsiella pneumoniae XNWB 0006; test: as above; settings: ceftazidime 8 μg/mL fixed
Summary of the method: as §1

[3] = test system: Klebsiella pneumoniae XNWB 0004; test: as above; settings: ceftazidime 8 μg/mL fixed
Summary of the method: as §1

[4] = test system: Klebsiella pneumoniae XNWB 0002; test: as above; settings: ceftazidime 8 μg/mL fixed
Summary of the method: as §1

[5] = test system: Pseudomonas aeruginosa XNWB 0008; test: as above; settings: ceftazidime 8 μg/mL fixed
Summary of the method: as §1

[6] = test system: Acinetobacter baumannii XNWB 0007; test: as above; settings: ceftazidime 8 μg/mL fixed
Summary of the method: as §1

[7] = test system: Klebsiella pneumoniae XNWB 0003; test: as above; settings: ceftazidime 8 μg/mL fixed
Summary of the method: as §1

[8] = test system: Klebsiella pneumoniae XNWB 0005; test: as above; settings: ceftazidime 8 μg/mL fixed
Summary of the method: as §1

[9] = test system: Klebsiella pneumoniae XNWB 0001; test: MIC assay of test compounds combined with imipenem (4 μg/mL); settings: imipenem 4 μg/mL fixed
Summary of the method: as §1

[10] = test system: Klebsiella pneumoniae XNWB 0006; test: as above; settings: imipenem 4 μg/mL fixed
Summary of the method: as §1

[11] = test system: Klebsiella pneumoniae XNWB 0004; test: as above; settings: imipenem 4 μg/mL fixed
Summary of the method: as §1

[12] = test system: Klebsiella pneumoniae XNWB 0002; test: as above; settings: imipenem 4 μg/mL fixed
Summary of the method: as §1

[13] = test system: Pseudomonas aeruginosa XNWB 0008; test: as above; settings: imipenem 4 μg/mL fixed
Summary of the method: as §1

[14] = test system: Acinetobacter baumannii XNWB 0007; test: as above; settings: imipenem 4 μg/mL fixed
Summary of the method: as §1

[15] = test system: Klebsiella pneumoniae XNWB 0003; test: as above; settings: imipenem 4 μg/mL fixed
Summary of the method: as §1

[16] = test system: Klebsiella pneumoniae XNWB 0005; test: as above; settings: imipenem 4 μg/mL fixed
Summary of the method: as §1

| Compound | The minimum concentration of test compounds combined with ceftazidime (8 μg/mL) for bacteriostasis [1] | The minimum concentration of test compounds combined with ceftazidime (8 μg/mL) for bacteriostasis [2] | The minimum concentration of test compounds combined with ceftazidime (8 μg/mL) for bacteriostasis [3] | The minimum concentration of test compounds combined with ceftazidime (8 μg/mL) for bacteriostasis [4] | The minimum concentration of test compounds combined with ceftazidime (8 μg/mL) for bacteriostasis [5] | The minimum concentration of test compounds combined with ceftazidime (8 μg/mL) for bacteriostasis [6] | The minimum concentration of test compounds combined with ceftazidime (8 μg/mL) for bacteriostasis [7] | The minimum concentration of test compounds combined with ceftazidime (8 μg/mL) for bacteriostasis [8] | The minimum concentration of test compounds combined with imipenem (4 μg/mL) for bacteriostasis [9] | The minimum concentration of test compounds combined with imipenem (4 μg/mL) for bacteriostasis [10] | The minimum concentration of test compounds combined with imipenem (4 μg/mL) for bacteriostasis [11] | The minimum concentration of test compounds combined with imipenem (4 μg/mL) for bacteriostasis [12] | The minimum concentration of test compounds combined with imipenem (4 μg/mL) for bacteriostasis [13] | The minimum concentration of test compounds combined with imipenem (4 μg/mL) for bacteriostasis [14] | The minimum concentration of test compounds combined with imipenem (4 μg/mL) for bacteriostasis [15] | The minimum concentration of test compounds combined with imipenem (4 μg/mL) for bacteriostasis [16] |
| --- | --- | --- | --- | --- | --- | --- | --- | --- | --- | --- | --- | --- | --- | --- | --- | --- |
| CNCCc1cc([C@@H]2CC3(CC3)[C@@H]3CN2C(=O)N3OS(=O)(=O)O)no1 [Example 42, (1R,4S)-4-(5-(2-(methylamino)ethyl)isoxazol-3-yl)-6-oxo-5,7-diazaspiro[bicycle[3.2.1]octane-2,1′-cyclopropan]-7-yl sulfate] | A (A: <8 μg/mL) | A (A: <8 μg/mL) | B (B: 8-16 μg/mL) | A (A: <8 μg/mL) | C (C: 16-128 μg/mL) | C (C: 16-128 μg/mL) | A (A: <8 μg/mL) | A (A: <8 μg/mL) | A (A: <8 μg/mL) | A (A: <8 μg/mL) | A (A: <8 μg/mL) | A (A: <8 μg/mL) | B (B: 8-16 μg/mL) | C (C: 16-128 μg/mL) | A (A: <8 μg/mL) | A (A: <8 μg/mL) |
| N[C@H]1C[C@H](Cc2nnc([C@@H]3CC4(CC4)[C@@H]4CN3C(=O)N4OS(=O)(=O)O)o2)C1 [Example 19, (1R,4S)-4-(5-(((1R,3R)-3-aminocyclobutyl)methyl)-1,3,4-oxadiazol-2-yl)-6-oxo-5,7-diazaspiro[bicyclo[3.2.1]octane-2,1′-cyclopropan]-7-yl sulfate] | A (A: <8 μg/mL) | A (A: <8 μg/mL) | A (A: <8 μg/mL) | A (A: <8 μg/mL) | B (B: 8-16 μg/mL) | C (C: 16-128 μg/mL) | A (A: <8 μg/mL) | A (A: <8 μg/mL) | A (A: <8 μg/mL) | A (A: <8 μg/mL) | A (A: <8 μg/mL) | A (A: <8 μg/mL) | B (B: 8-16 μg/mL) | B (B: 8-16 μg/mL) | A (A: <8 μg/mL) | A (A: <8 μg/mL) |
| CNCc1cc([C@@H]2CC3(CC3)[C@@H]3CN2C(=O)N3OS(=O)(=O)O)no1 [Example 32] | B (B: 8-16 μg/mL) | B (B: 8-16 μg/mL) | C (C: 16-128 μg/mL) | A (A: <8 μg/mL) | C (C: 16-128 μg/mL) | C (C: 16-128 μg/mL) | B (B: 8-16 μg/mL) | C (C: 16-128 μg/mL) | A (A: <8 μg/mL) | A (A: <8 μg/mL) | A (A: <8 μg/mL) | A (A: <8 μg/mL) | C (C: 16-128 μg/mL) | C (C: 16-128 μg/mL) | A (A: <8 μg/mL) | A (A: <8 μg/mL) |
